The results in this text go back to patent US20240368120A1 (Terns Pharmaceuticals, Inc., priority 2023, published 2024).

One may read the pEC50 as the negative decadic logarithm of the EC50, by convention in mol/L. A low value points to a high EC50. As usually defined, the Emax is the maximal effect, on the per cent scale that the assay sets. What is called AUC is the area under the concentration-time curve, a measure of exposure. Read a low AUC as low exposure.

pEC50: −log10 of the molar value.

One data set deals with T1, human GLP-1R receptor (Homo sapiens, UniProt P43220).
T1 construct: expressed in transfected cells
T1 sequence (P43220 24-463): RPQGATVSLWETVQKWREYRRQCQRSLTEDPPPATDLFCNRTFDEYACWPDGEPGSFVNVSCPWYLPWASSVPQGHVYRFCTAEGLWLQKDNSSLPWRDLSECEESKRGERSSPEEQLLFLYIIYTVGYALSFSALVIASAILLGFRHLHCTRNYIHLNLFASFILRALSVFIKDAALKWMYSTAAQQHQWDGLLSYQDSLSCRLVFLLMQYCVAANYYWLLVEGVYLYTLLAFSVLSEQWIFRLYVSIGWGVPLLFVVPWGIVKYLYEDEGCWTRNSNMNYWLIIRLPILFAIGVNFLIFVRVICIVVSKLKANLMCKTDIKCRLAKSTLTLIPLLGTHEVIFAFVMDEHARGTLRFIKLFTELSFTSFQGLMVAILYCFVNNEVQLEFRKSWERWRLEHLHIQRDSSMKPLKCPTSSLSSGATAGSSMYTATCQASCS
Briefly: GLP-1R low expression cell assay (cAMP TR-FRET, CHO-K1_hGLP-1Rlow_clone10 cells). Type of data set: cell-based. The note with it: for pEC50: cAMP TR-FRET, 30 min at 25° C.; for Emax: maximum activation relative to control GLP-1 peptide agonist. The method, boiled down:
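Readout is cAMP TR-FRET after 30 min compound stimulation at 25 °C of a low-GLP-1R-expressing CHO-K1 clone (1,000 cells/well), with 10-point 3-fold serial dilutions. Percent activation versus a control GLP-1 peptide, from duplicates, was Hill-fitted to give EC50.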

Data set [1] in a line: Rat pharmacokinetics, intravenous dosing. It is filed as in vivo, Sprague-Dawley rats. To be noted: male, Sprague-Dawley, IV bolus dosing at 3.0 mg/kg, plasma. The method, then:
Intravenous dosing: Compounds were formulated at 1.0 mg/mL in a solution comprising 5% polyethylene glycol 400 and 95% (12% (w/v) sulfobutyl-β-cyclodextrin in water) (v/v). Formulated compounds were sterile filtered through a 0.22 micron filter before dosing. Compounds were administered to male, 7-11-week-old Sprague-Dawley rats by jugular vein cannula infusion over 30 minutes at a dose of 1 mg/kg. Oral dosing: Compounds were formulated at 1.0 mg/mL in a solution comprising 5% polyethylene glycol 400 and 95% (12% (w/v) sulfobutyl-β-cyclodextrin in water) (v/v). Formulated compounds were administered to male, 7-11 week old Sprague-Dawley rats by oral gavage at a dose of 10 mg/kg or 3 mg/kg.
Sample collection: Blood collections of about 0.2 mL per time point were performed from jugular vein or other suitable site of each animal, into pre-chilled commercial EDTA-K2 tubes and placed on wet ice until centrifugation. Blood samples were processed for plasma by centrifugation at approximately 4° C., 3,200 g for 10 min. Plasma was collected and transferred into pre-labeled 96 well plate or polypropylene tubes, quick frozen over dry ice and kept at −60° C. or lower until
Data analysis: Plasma concentration versus time data was plotted in graph and analyzed by non-compartmental approaches using the Phoenix WinNonlin 6.3 software program. Related PK parameters were calculated according to dosing route, e.g., CL, Vdss and C0 for intravenous administration, Cmax, Tmax or % F for extravascular administration, and T1/2, AUC(0-t), AUC(0-inf), MRT(0-t), MRT(0-inf) for all routes.

On human GLP-1R receptor, `COc1cc(C(=O)O)cc2c1nc(CN1CCC(c3cccc(OCc4ccc(C#N)cc4F)n3)CC1)n2C[C@@H]1CCO1` [Compound 8, (S)-2-((4-(6-((4-Cyano-2-fluorobenzyl)oxy)pyridin-2-yl)piperidin-1-yl)methyl)-4-methoxy-1-(oxetan-2-ylmethyl)-1H-benzo[d]imidazole-6-carboxylic acid] showed a pEC50 of more than 8.00 and an Emax of more than 85%.

On to `COc1cc(C(=O)O)cc2c1nc(CN1CCC(c3cccc(OCc4ccc(C#N)cc4F)n3)CC1)n2Cc1cncs1` [Compound 1, 2-((4-(6-((4-Cyano-2-fluorobenzyl)oxy)pyridin-2-yl)piperidin-1-yl)methyl)-4-methoxy-1-(thiazol-5-ylmethyl)-1H-benzo[d]imidazole-6-carboxylic acid], for which, in data set [1], the AUC was less than 500 ng·h/mL and the C0 was more than 2000 ng/mL. Further, the half-life in data set [1] (read-out: Rat T1/2) is less than 1.5 h. On human GLP-1R receptor, the pEC50 is more than 8.00 and the Emax was more than 85%.
